We go through 3 molecules from PMC5341695 (Biochemical pharmacology, 2016).

The term Km denotes the concentration of substrate that gives half-maximal velocity.

Data set [1] concerns the target T1, mouse Pgp reconstituted in liposomes (Mus musculus, UniProt P21447). Conditions: 3.2 mM (saturating) AMPPNP, no verapamil.
For data set [2], the target named is mouse Pgp reconstituted into liposomes (Mus musculus, UniProt P21447).
Data set [3] has as its target T1, mouse Pgp reconstituted in liposomes. As to the kind of experiment: AMPPNP-induced quenching of Pgp intrinsic tryptophan fluorescence.
Data set [4] deals with wild-type his-tagged mouse Pgp transporter reconstituted into liposomes (Mus musculus, UniProt P21447). As to the kind of experiment: Pgp-coupled ATPase activity.
Setting [5] is: 3.2 mM AMPPNP, 1 µM Pgp, no verapamil.

SMILES strings stand for the structures. Several values for one entry are separate records, joined by “and”; a condition that tells them apart may be missing. Identical values can stand only once. Like-named read-outs stand apart in the source and are kept apart here.

In data set [1], `Nc1ncnc2c1ncn2[C@@H]1O[C@H](COP(=O)([O-])OP(=O)([O-])NP(=O)([O-])[O-])[C@@H](O)[C@H]1O.[Li+].[Li+].[Li+].[Li+]` [AMPPNP, Adenosine 5’-(β,γ-imido)triphosphate lithium salt] showed a KSV acrylamide quenching of 0.97 ± 0.16 M⁻¹. The “decrease of average STDD amplification factor of AMPPNP” value in data set [2] (3.2 mM AMPPNP and 8 µM verapamil) was found to be 15%. For the same molecule, the “increase of average STDD amplification factors of AMPPNP” value in data set [2] (3.2 mM AMPPNP and 1 mM verapamil) is reported as “more than 20%”. Moreover, in data set [2] (setting [5]), the “average STDD amplification factor for AMPPNP” value is recorded as 63 ± 51; the “average STDD amplification factor, purine base” value is reported as 79 ± 64; the “average STDD amplification factor, ribose sugar” value is reported as 40 ± 11. Also, in data set [3] (37 °C, data not shown), the “K1 (low concentration phase)” value is 8 µM⁻¹ and the “K2 (high concentration phase)” value is 0.017 µM⁻¹. Besides, in data set [3] (fit to equation 6), the “K1 (low concentration phase, dynamic quenching)” value is recorded as 6.66 +/− 3.41 µM ^−1; the “K2 (high concentration phase, static quenching)” value is recorded as 0.022 +/− 0.006 µM ^−1; the “fraction quenched, high concentration phase (FH/F0)” value turned out to be 0.074; the “fraction quenched, low concentration phase (FL/F0)” value is 0.16. Also, in data set [3] (read-out: KD of AMPPNP for Pgp, from high concentration (static) quenching phase), the Kd was determined as 45 µM. The “decrease of Pgp tryptophan fluorescence” value in data set [3] (saturating AMPPNP concentration, 1 µM Pgp) is listed as “about 15%”.

Regarding `Nc1ncnc2c1ncn2[C@@H]1O[C@H](COP(=O)(O)OP(=O)([O-])OP(=O)([O-])O)[C@@H](O)[C@H]1O.[Na+].[Na+]` [ATP, Disodium ATP], the “VMAX basal Pgp ATPase activity” value in data set [4] (ATP titration in the absence of verapamil, Equation 1) was found to be 619 ± 18 nmol/min/mg. In data set [4] (COPASI fit, KD5 versus KD3, saturating verapamil), the “increase of ATP affinity in the presence of two bound verapamil molecules” value was ~ 4 fold and 4 fold. Further, in data set [4] (COPASI fit, average over […]-3.2 mM ATP), the “Vmax0 (basal ATPase activity, E-ATP)” value is 672 ± 93 nmol/min/mg. For the same molecule, the “VMAX of Pgp-coupled ATPase with ATP alone (discussion)” value in data set [4] (no verapamil) fell in the range of 500 to 700 nmol/min/mg. Moreover, the Kd in data set [4] (read-out: KD4 (ATP to EV, one bound verapamil), COPASI fit, 0.5 mM ATP data set) is 1490 µM; in data set [4] (read-out: KD4 (ATP to EV, one bound verapamil), COPASI fit, 1 mM ATP data set), 1340 µM; in data set [4] (read-out: KD4 (ATP to EV, one bound verapamil), COPASI fit, 2 mM ATP data set) it was 1030 µM; in data set [4] (read-out: KD4 (ATP to EV, one bound verapamil), COPASI fit, 3.2 mM ATP data set), 1000 µM; in data set [4] (read-out: KD4 (ATP to EV, one bound verapamil), COPASI fit, […] ATP data set), 1350 µM; in data set [4] (read-out: KD5 (ATP to EVV, two bound verapamil), COPASI fit, 3.2 mM ATP data set), 210 µM. Besides, the Km in data set [4] (read-out: Km for ATP in the presence of Na3VO4, 200 µM Na3VO4, range of ATP concentrations, Equation 1) turned out to be 906 ± 476 µM.

As to `[Na+].[Na+].[Na+].[O]=[V]([O-])([O-])[O-]` [Na3VO4, sodium orthovanadate], the “mode of inhibition of Pgp-mediated ATP hydrolysis” value in data set [4] (200 µM) was “non-competitive inhibitor”. In data set [4] (200 µM Na3VO4, range of ATP concentrations, Equation 1), the “VMAX Pgp ATPase activity in the presence of Na3VO4” value was 172 ± 24 nmol/min/mg. Further, in data set [4] (difference in VMAX without and with 200 µM Na3VO4), the “Na3VO4 sensitive VMAX for Pgp” value was 447 ± 30 nmol/min/mg.
